Measured values reported in publication PMC6891286, “Towards the Development of an In vivo Chemical Probe for Cyclin G Associated Kinase (GAK)” (Molecules, 2019).

Columns and labels:
[1] = pharmacokinetic profiling in mice, oral dosing; type: in vivo; conditions: C57BL/6 mice, 10 mg/kg po
Protocol: Pharmacokinetic profiling was performed by SAI Life Sciences (Hyderabad, India). […] Prior approval of the Institutional Animal Ethics Committee (IAEC) was obtained before initiation of the study. Healthy male C57BL/6 mice (8–12 weeks old) weighing between 20 and 35 g were procured from (Envigo Research Private Ltd., City, Hyderabad, India). Three mice were housed in each cage. […] Temperature and humidity were recorded by an automatically controlled data logger system. All animals were provided a laboratory rodent diet (Envigo Research Private Ltd., Hyderabad, India). Reverse osmosis water treated with ultraviolet light was provided ad libitum. Eighteen male mice were weighed and divided in to two groups (Group 1 and Group 2), with nine mice in each group. […] The dosing volume administered was 10 mL/kg for the oral route. […] Plasma samples were separated by centrifugation at 4000 rpm for 10 min and stored below −70 °C until bioanalysis. […] The plasma concentration-time data were then used for the pharmacokinetic analysis. A non-compartmental analysis module in Phoenix WinNonlin (Version 6.3, Certara USA Inc., Raleigh, NC, USA) was used to assess the pharmacokinetic parameters. Maximum concentration (Cmax) and time to reach the maximum concentration (Tmax) were the observed values. The areas under the concentration time curve (AUClast and AUCinf) were calculated by linear trapezoidal rule.

[2] = biological target: T1, CLK1 (Homo sapiens, UniProt P49759); assay: KINOMEscan; type: binding; conditions: 35 at 1 µM; read-out: % inhibition
T1 construct: purchased Eurofins DiscoverX (KINOMEscan)
Protocol: (§1) KinomeScan Assay on 35 was performed as previously described at EuroFins DiscoverX (Fremont, CA, USA).

[3] = biological target: T2, AXL (Homo sapiens, UniProt P30530); assay: KINOMEscan; type: binding; conditions: 35 at 1 µM; read-out: % inhibition
T2 construct: purchased Eurofins DiscoverX (KINOMEscan)
Protocol: as §1

[4] = biological target: T3, HPK1 (Homo sapiens, UniProt Q92918); assay: KINOMEscan; type: binding; conditions: 35 at 1 µM; read-out: % inhibition
T3 construct: purchased Eurofins DiscoverX (KINOMEscan)
Protocol: as §1

[5] = biological target: T4, MYLK2 (Homo sapiens, UniProt Q9H1R3); assay: KINOMEscan; type: binding; conditions: 35 at 1 µM; read-out: % inhibition
T4 construct: purchased Eurofins DiscoverX (KINOMEscan)
Protocol: as §1

[6] = biological target: T5, ACVR1B (Homo sapiens, UniProt P36896); assay: KINOMEscan; type: binding; conditions: 35 at 1 µM; read-out: % inhibition
T5 construct: purchased Eurofins DiscoverX (KINOMEscan)
Protocol: as §1

[7] = biological target: T6, ICK (Homo sapiens, UniProt Q9UPZ9); assay: KINOMEscan; type: binding; conditions: 35 at 1 µM; read-out: % inhibition
T6 construct: purchased Eurofins DiscoverX (KINOMEscan)
Protocol: as §1

[8] = biological target: T7, MUSK (Homo sapiens, UniProt O15146); assay: KINOMEscan; type: binding; conditions: 35 at 1 µM; read-out: % inhibition
T7 construct: purchased Eurofins DiscoverX (KINOMEscan)
Protocol: as §1

[9] = biological target: T8, LZK (Homo sapiens, UniProt O43283); assay: KINOMEscan; type: binding; conditions: 35 at 1 µM; read-out: % inhibition
T8 construct: purchased Eurofins DiscoverX (KINOMEscan)
Protocol: as §1

[10] = biological target: T9, ABL1(F317L)-phosphorylated (Homo sapiens, UniProt P00519, F317L); assay: KINOMEscan; type: binding; conditions: 35 at 1 µM; read-out: % inhibition
T9 construct: purchased Eurofins DiscoverX (KINOMEscan)
Protocol: as §1

[11] = biological target: T10, SLK (Homo sapiens, UniProt Q9H2G2); assay: KINOMEscan; type: binding; conditions: 35 at 1 µM; read-out: % inhibition
T10 construct: purchased Eurofins DiscoverX (KINOMEscan)
Protocol: as §1

[12] = biological target: T11, EPHB2 (Homo sapiens, UniProt P29323); assay: KINOMEscan; type: binding; conditions: 35 at 1 µM; read-out: % inhibition
T11 construct: purchased Eurofins DiscoverX (KINOMEscan)
Protocol: as §1

[13] = biological target: T12, MYLK4 (Homo sapiens, UniProt Q86YV6); assay: KINOMEscan; type: binding; conditions: 35 at 1 µM; read-out: % inhibition
T12 construct: purchased Eurofins DiscoverX (KINOMEscan)
Protocol: as §1

[14] = biological target: T13, BRSK2 (Homo sapiens, UniProt Q8IWQ3); assay: KINOMEscan; type: binding; conditions: 35 at 1 µM; read-out: % inhibition
T13 construct: purchased Eurofins DiscoverX (KINOMEscan)
Protocol: as §1

[15] = biological target: T14, GAK (Homo sapiens, UniProt O14976); assay: KINOMEscan; type: binding; parameters: purchased Eurofins DiscoverX (KINOMEscan)
T14 sequence (O14976 1-1311): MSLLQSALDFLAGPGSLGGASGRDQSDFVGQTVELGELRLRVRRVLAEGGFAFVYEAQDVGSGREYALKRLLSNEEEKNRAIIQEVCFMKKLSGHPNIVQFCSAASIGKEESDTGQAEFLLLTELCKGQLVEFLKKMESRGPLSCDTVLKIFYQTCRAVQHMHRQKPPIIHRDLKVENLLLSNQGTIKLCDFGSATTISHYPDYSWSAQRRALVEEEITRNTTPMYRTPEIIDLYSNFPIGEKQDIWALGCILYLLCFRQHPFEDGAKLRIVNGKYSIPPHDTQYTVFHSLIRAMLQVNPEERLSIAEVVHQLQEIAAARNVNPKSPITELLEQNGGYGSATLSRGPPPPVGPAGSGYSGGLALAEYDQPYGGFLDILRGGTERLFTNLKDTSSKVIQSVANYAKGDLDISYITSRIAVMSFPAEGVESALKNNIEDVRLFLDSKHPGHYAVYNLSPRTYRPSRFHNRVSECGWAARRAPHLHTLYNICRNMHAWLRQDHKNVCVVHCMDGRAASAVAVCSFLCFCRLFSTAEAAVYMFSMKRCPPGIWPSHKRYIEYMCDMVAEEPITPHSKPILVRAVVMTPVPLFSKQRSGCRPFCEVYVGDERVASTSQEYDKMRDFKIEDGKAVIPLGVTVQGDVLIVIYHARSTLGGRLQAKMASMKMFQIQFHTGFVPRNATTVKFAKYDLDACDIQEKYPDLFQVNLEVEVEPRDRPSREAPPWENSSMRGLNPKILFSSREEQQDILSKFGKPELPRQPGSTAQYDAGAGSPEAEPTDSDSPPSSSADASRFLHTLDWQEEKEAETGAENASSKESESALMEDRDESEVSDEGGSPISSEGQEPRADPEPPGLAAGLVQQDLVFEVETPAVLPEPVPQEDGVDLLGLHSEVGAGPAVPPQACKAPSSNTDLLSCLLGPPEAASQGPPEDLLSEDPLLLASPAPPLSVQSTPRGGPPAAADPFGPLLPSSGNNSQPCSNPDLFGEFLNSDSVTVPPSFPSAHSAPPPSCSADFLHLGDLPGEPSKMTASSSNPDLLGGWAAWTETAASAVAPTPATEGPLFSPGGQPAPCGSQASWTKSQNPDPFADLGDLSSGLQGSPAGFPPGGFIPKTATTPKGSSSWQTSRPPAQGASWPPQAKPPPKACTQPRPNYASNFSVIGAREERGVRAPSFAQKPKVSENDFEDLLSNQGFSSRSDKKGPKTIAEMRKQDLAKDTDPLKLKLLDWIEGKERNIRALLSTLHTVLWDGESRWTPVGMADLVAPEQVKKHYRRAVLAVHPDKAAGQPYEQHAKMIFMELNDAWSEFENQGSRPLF
Protocol: as §1

[16] = biological target: AAK1 (Homo sapiens, UniProt Q2M2I8); assay: KINOMEscan; type: binding; parameters: purchased Eurofins DiscoverX (KINOMEscan); conditions: 35 at 1 µM; read-out: % inhibition
Protocol: as §1

[17] = male, C57BL/6, mouse, plasma, po, 10 mg/kg, 2 h pretreat 50 mpk ABT
[18] = male, C57BL/6, mouse, plasma, po, 10 mg/kg, without ABT

T11 sequence (P29323 19-1055): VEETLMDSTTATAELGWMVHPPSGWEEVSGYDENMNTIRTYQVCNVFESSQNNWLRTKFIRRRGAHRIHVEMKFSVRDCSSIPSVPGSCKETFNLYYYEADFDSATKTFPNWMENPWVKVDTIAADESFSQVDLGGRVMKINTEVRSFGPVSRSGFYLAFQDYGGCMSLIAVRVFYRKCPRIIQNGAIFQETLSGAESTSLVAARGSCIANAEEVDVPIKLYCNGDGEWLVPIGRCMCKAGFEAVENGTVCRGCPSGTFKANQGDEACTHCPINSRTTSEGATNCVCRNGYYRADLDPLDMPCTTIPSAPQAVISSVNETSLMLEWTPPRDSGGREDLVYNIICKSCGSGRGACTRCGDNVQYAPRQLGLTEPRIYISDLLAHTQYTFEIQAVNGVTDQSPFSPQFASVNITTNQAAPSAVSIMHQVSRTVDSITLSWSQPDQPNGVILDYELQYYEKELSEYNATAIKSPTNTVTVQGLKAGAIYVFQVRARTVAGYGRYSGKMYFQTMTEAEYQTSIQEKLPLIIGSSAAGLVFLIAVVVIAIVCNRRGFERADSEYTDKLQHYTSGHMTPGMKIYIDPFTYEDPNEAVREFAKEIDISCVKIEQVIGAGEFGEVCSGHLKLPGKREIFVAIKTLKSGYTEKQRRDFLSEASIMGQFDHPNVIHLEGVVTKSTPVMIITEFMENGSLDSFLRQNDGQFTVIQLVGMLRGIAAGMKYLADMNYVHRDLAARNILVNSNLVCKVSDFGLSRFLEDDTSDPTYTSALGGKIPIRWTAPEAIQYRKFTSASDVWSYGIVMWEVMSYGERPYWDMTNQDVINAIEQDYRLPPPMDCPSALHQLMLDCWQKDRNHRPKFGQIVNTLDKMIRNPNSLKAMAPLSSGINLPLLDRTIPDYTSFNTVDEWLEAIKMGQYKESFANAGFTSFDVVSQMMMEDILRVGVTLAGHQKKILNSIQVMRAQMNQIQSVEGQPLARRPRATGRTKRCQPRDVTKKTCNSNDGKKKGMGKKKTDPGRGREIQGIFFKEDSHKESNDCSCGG
T8 sequence (O43283 whole entry): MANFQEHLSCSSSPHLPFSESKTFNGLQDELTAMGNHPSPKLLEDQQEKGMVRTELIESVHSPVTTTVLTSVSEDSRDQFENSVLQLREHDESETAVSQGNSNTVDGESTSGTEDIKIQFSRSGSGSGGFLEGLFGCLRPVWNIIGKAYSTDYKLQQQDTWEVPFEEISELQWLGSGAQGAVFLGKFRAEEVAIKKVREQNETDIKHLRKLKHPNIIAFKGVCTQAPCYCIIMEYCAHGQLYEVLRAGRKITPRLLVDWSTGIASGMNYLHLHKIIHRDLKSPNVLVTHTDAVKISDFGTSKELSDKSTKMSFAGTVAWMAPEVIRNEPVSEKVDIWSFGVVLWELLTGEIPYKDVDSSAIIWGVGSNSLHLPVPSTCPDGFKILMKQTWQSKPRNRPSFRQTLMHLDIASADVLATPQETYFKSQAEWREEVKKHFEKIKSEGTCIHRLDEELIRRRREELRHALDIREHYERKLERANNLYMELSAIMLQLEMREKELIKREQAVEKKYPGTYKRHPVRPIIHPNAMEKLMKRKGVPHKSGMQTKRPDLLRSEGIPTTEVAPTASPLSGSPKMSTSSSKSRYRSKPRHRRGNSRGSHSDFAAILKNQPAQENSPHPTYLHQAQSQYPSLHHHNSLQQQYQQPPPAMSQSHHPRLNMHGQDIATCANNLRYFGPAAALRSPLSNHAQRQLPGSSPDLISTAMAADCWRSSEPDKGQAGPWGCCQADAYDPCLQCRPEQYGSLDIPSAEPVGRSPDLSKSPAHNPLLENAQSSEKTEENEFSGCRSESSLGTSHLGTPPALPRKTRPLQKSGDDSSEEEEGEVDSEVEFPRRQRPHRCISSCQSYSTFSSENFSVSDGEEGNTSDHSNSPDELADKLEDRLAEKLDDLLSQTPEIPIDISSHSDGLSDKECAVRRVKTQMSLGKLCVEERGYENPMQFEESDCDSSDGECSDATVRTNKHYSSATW
AAK1, sequence (Q2M2I8 whole entry): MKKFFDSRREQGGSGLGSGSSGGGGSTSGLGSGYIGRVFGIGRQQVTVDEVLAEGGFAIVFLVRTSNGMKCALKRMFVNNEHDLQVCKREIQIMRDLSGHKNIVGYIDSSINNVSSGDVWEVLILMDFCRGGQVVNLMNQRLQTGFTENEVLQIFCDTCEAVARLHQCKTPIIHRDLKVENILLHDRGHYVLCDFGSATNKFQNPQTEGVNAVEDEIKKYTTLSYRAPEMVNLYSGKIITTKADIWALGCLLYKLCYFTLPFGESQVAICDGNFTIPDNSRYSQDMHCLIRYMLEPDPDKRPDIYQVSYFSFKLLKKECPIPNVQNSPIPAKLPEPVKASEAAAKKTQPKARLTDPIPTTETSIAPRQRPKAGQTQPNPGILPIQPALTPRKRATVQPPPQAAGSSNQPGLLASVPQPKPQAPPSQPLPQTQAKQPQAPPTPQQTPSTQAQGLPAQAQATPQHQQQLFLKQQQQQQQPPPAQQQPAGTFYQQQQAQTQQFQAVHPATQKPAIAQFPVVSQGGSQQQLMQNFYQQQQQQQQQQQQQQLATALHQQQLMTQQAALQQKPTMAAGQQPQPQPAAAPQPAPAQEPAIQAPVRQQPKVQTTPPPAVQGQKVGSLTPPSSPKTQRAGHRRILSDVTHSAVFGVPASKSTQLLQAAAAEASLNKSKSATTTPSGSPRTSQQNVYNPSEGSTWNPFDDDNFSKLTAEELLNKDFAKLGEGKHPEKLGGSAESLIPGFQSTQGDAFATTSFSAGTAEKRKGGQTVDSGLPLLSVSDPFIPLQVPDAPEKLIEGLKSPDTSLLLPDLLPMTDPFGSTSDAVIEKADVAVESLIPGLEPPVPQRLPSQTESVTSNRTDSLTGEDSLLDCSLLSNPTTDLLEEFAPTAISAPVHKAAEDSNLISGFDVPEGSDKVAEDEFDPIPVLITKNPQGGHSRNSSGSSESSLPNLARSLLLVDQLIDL
T5 sequence (P36896 24-505): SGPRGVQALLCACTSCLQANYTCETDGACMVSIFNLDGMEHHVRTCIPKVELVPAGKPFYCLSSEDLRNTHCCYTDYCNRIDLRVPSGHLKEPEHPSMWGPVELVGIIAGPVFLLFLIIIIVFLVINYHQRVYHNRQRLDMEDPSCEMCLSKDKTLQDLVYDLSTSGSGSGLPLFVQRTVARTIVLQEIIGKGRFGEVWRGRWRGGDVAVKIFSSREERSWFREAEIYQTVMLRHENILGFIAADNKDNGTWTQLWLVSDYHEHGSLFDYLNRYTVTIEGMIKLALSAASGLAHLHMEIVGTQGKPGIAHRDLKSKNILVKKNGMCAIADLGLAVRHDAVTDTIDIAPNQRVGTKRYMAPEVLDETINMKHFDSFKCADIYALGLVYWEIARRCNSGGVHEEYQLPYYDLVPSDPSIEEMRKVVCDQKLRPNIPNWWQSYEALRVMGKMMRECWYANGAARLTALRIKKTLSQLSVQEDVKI
T7 sequence (O15146 24-869): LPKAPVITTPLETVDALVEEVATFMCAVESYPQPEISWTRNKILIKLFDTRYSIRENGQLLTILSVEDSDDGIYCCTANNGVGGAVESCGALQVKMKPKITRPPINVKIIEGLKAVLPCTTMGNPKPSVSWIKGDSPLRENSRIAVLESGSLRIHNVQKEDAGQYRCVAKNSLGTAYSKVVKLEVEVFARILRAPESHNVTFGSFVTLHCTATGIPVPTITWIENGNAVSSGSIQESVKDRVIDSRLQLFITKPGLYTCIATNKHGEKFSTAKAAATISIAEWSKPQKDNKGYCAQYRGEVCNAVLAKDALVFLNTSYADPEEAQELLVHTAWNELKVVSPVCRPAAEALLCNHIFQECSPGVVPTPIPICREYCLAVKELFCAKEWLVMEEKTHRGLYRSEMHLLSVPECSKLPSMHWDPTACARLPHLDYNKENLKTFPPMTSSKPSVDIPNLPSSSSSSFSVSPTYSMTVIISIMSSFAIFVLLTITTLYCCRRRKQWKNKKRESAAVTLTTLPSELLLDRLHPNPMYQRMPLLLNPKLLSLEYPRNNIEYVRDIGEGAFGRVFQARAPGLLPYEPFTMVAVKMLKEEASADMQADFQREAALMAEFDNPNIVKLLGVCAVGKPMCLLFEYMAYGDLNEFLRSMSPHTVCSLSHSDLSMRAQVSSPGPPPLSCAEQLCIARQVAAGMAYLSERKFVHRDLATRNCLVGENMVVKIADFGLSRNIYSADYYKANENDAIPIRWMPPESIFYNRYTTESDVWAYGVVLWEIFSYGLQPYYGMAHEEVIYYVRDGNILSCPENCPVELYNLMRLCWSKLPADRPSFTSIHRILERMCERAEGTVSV
T6 sequence (Q9UPZ9 whole entry): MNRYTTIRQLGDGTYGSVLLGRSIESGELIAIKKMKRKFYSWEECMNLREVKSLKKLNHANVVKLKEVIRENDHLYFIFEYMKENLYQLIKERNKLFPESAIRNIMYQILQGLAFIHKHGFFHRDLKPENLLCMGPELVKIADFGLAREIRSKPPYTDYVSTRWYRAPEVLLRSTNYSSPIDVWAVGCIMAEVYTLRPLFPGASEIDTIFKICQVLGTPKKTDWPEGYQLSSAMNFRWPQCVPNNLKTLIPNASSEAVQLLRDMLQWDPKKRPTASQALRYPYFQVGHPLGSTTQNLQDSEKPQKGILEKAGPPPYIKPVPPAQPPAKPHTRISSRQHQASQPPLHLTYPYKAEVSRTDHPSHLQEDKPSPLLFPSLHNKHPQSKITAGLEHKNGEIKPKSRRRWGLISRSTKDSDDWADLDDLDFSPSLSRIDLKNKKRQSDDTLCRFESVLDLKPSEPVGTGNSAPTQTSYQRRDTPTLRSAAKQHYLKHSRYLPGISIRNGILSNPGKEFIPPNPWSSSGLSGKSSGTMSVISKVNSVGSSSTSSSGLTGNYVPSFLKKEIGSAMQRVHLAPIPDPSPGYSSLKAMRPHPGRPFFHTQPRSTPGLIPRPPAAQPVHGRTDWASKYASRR

COc1cc2nccc(Nc3cc(OC)c(OC)c(OC)c3)c2cc1OC [Compound 8]
fold higher exposure with ABT pretreatment ([1]; 2 h pre-treatment with 50 mg/kg ABT vs without): 8 fold
time plasma concentration sustained at 2-fold above the cellular IC50 ([1]; pretreatment with ABT): > 8 h
AUC(0-inf) [1, 17]: 569 ng·h/mL
Tmax [1, 17]: 2 h
Cmax ([1]; male, C57BL/6, mouse, plasma, po, 10 mg/kg, 2 h pretreat 50 mpk ABT, read-out: Cmax): 107 ng/mL
AUC(0-inf) [1, 18]: 71 ng·h/mL
Tmax [1, 18]: 1 h
half-life ([1]; male, mouse, plasma, without ABT, read-out: T1/2 in mice): < 1 h

Brc1ccc2nccc(Nc3ccc4cn[nH]c4c3)c2c1 [Compound 35, 6-Bromo-N-(1H-indazol-6-yl)quinolin-4-amine]
activity at 1 µM [2]: 100%
activity at 1 µM [3]: 100%
activity at 1 µM [4]: 100%
activity at 1 µM [5]: 100%
activity at 1 µM [6]: 100%
activity at 1 µM [7]: 100%
activity at 1 µM [8]: 100%
activity at 1 µM [9]: 100%
activity at 1 µM [10]: 85%
activity at 1 µM [11]: 100%
activity at 1 µM [12]: 100%
activity at 1 µM [13]: 100%
activity at 1 µM [14]: 100%
activity at 1 µM ([15]; 35 at 1 µM, read-out: % inhibition): 10%
inhibition at 1 µM ([15]; KinomeScan, screened at 1 μM, read-out: kinases inhibited at 1 μM: GAK): 90%
activity at 1 µM [16]: 100%
